{"source": "patent US20190365745A1", "about": "“USE OF CHRONIC TREATMENT WITH ATR INHIBITORS TO SENSITIZE CANCER CELLS TO PARP INHIBITORS” (Cornell University, priority 2018, published 2019)", "key": {"[1]": {"tested_on": "HCT116 (colon cancer) and indicated cancer cell lines", "test": "Immunoblotting of HR factor abundance in cancer cell lines", "type": "cell-based, Human", "details": "cancer cells; 5 μM ATRi, 8 days", "procedure": "FIGS. 14A-14B show WB analysis of hTERT RPE-1 (FIG. 14A) or HCT116 (colon cancer)(FIG. 14B) cells after 8 day chronic treatment with 5 μM ATRi or ATMi. […] FIGS. 14D-14E are bar graphs showing the analysis of HR-mediated repair using the DR-GFP system. Relative fold change of GFP positive hTERT RPE-1 (FIG. 14D) or HCT116 (FIG. 14E) cells over DMSO after ATRi treatment. (Error bars=SEM, N≥3, ****P-value<0.0001; one sample-t-test was used for the statistical analysis comparing 2 days versus 8 days of treatment).\nHuman U2OS, HCT116, hTERT RPE-1, HEK293T, HeLa, U87, T98G, A2780, and human skin fibroblast cells (GM08398 and GM18366) were grown in DMEM media supplemented with 10% bovine calf serum, penicillin/streptomycin and non-essential amino acids. […]\nCells were harvested and lysed in modified radioimmunoprecipitation assay (RIPA) buffer (50 mM Tris-HCl pH 7.5, 150 mM NaCl, 1% tergitol, 0.25% sodium deoxycholate, 5 mM EDTA) supplemented with Complete EDTA-free protease inhibitor cocktail (Roche), 1 mM PMSF, 5 mM sodium fluoride, 10 mM β-glycerol-phosphate and 0.4 mM sodium orthovanadate. […] After being resolved on SDS-PAGE gels, proteins were then transferred onto polyvinylidene difluoride (PVDF) membranes and detected with designated antibodies."}, "U2OS cells": {"tested_on": "U2OS cells", "test": "Real time PCR of mRNA levels", "type": "cell-based, Human", "details": "normalized to GAPDH", "source_text": "FIG. 9B is a bar graph showing the analysis of HR-mediated repair using the DR-GFP system. Relative fold change of GFP positive U2OS cells treated with CHK1i compared to DMSO treatment control. (Error bars=SEM, N=4, ****P-value<0.0001; one sample-t-test was used for the statistical analysis). FIGS. 9C-9D show a histogram showing representative FACS data (FIG. 9C) and a bar graph showing quantitation of G1, S and G2/M population for cell cycle analysis of CHK1i treated cells (FIG. 9D) (Error bars=SD, N=3). FIG. 9E are bar graphs showing real time PCR analysis of total RNA extracted from U2OS cells treated with DMSO, ATRi (5 μM for 8 days) or CHK1i (0.2 μM for 5 days). Values were normalized to GAPDH mRNA levels. (Error bars=SD, N=3). FIG. 9F is a schematic diagram showing a proposed model of how E2F transcription is regulated through ATR-CHK1 signaling. […] FIG. 9H is a bar graph showing DR-GFP analysis of 293-T-REX-E2F6 cells after 8 days of treatment with DMSO or doxycycline. (Error bars=SEM, N=4). FIG. 9I is a histogram showing cell cycle analysis of 293-T-REX-E2F6 cells after 8 days of treatment with DMSO or doxycycline. FIG. 9J is a schematic diagram showing a model depicting multiple roles of ATR in the control of HR capacity.\nCells cultured from 10 cm dish were collected and lysed in 1 ml of TRIzol (Invitrogen). Chloroform was added to the lysed sample to separate RNA. Separated RNA was precipitated by isopropyl alcohol, followed by two washes with 75% ethanol. 1 μg of extracted RNA from each sample was then reverse transcribed with Bio-Rad iScript cDNA synthesis kit. The samples (˜100 ng) were analyzed in a Roche 480 light cycler in a total of 15 μl containing SYBR green mix and primers. The values were calculated using “absolute quantification/2nd derivative max” in lightcycler 480 program and then normalized to the level of GAPDH."}}}
{"smiles": "CS(=O)(=O)c1ccc(-c2cnc(N)c(C(=O)Nc3ccccc3)n2)cc1", "note": "[ATRi, VE-821]", "values": [{"measurement": "Abundance of BRCA1 (WB)", "setting": "[1]", "value": "severe reduction in the abundance of BRCA1"}, {"measurement": "mRNA levels of BRCA1 and RAD51", "setting": "U2OS cells; ATRi 5 μM 8 days or CHK1i 0.2 μM 5 days", "value": "reduction in the mRNA levels of BRCA1 and RAD51"}, {"measurement": "mRNA levels of 53BP1", "setting": "U2OS cells; ATRi 5 μM 8 days", "value": "major changes in the mRNA levels of 53BP1 were not observed"}]}
